Test results as given in US20230139445A1, “BACTERIAL CELLS WITH IMPROVED TOLERANCE TO DIACIDS” (priority 2016, published 2023).
Read-outs that look alike come from different tables or passages of the source.

What was measured:
[1] = system: Escherichia coli K-12 MG1655; assay: Growth of K-12 MG1655 in varying concentrations of fumaric, itaconic, malic and succinic acid, Growth Profiler; type: cell-based
Description: Five colonies from wild-type K-12 MG1655 and 10 individual colonies deriving from each population were inoculated into 300 μL M9+1% glucose in 96 well deepwell plates and incubated in a 300 rpm plate shaker at 37° C. The next day, cells were diluted 10× in M9+1% glucose and 30 μL was transferred into clear-bottomed 96 well half-deepwell plates (with rectangular wells) containing M9+1% glucose and M9+1% glucose+52.78 g/L glutaric acid or 55.56 g/L adipic acid, such that the final concentration of glutaric acid or adipic acid was 47.5 g/L or 50 g/L, respectively. In addition, cryogenic glycerol stocks of the overnight culture were saved in a 96 well plate format. Half deepwell plates were incubated at 37° C. with 225 rpm shaking in a Growth Profiler (Enzyscreen), with optical scans of the plates taken at 15 minute intervals. Green pixel values integrated over a 1 mm diameter circular area in each well were converted to OD600 values using a previously determined calibration between OD600 and green pixel values.
Additionally, each evolved isolate was tested for cross-tolerance toward other dicarboxylic acids of interest. […] All diacids tested were either the neutral sodium salts, or the free diacid was neutralized with sodium hydroxide to pH 7.0 for testing.

[2] = system: Escherichia coli K-12 MG1655 and evolved isolates; type: cell-based; conditions: 45 g/L itaconic acid
Outline: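 Wild-type MG1655 and evolved isolates, precultured overnight in M9 + 1% glucose at 37 °C, were diluted into M9 + 1% glucose. Growth at 37 °C, 225 rpm, scanned every 15 min; pixel values calibrated to OD600. Diacids tested as sodium salts or neutralized to pH 7.0.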

C=C(CC(=O)O)C(=O)O [itaconic acid]
μ (mean) ([1]; growth rate of K-12 MG1655, 10 g/L diacid (sodium salt)): 0.703 h^1
μ (mean) ([1]; growth rate of K-12 MG1655, 20 g/L diacid (sodium salt)): 0.603 h^1
μ (mean) ([1]; growth rate of K-12 MG1655, 30 g/L diacid (sodium salt)): 0.520 h^1
μ (mean) ([1]; growth rate of K-12 MG1655, 40 g/L diacid (sodium salt)): 0.320 h^1
μ (mean) ([1]; growth rate of K-12 MG1655, 50 g/L diacid (sodium salt)): 0.117 h^1
tlag (mean) ([1]; lag time of K-12 MG1655, 10 g/L diacid (sodium salt)): 5.8 h
tlag (mean) ([1]; lag time of K-12 MG1655, 20 g/L diacid (sodium salt)): 7.0 h
tlag (mean) ([1]; lag time of K-12 MG1655, 30 g/L diacid (sodium salt)): 9.4 h
tlag (mean) ([1]; lag time of K-12 MG1655, 40 g/L diacid (sodium salt)): 14.1 h
tlag (mean) ([1]; lag time of K-12 MG1655, 50 g/L diacid (sodium salt)): 29.9 h
growth rate μ (mean) ([2]; strain ADIP1-1): 0.466 h⁻¹
lag time tlag (mean) ([2]; strain ADIP1-1): 8.3 h
growth rate μ (mean) ([2]; strain ADIP1-9): 0.434 h⁻¹
lag time tlag (mean) ([2]; strain ADIP1-9): 8.7 h
growth rate μ (mean) ([2]; strain ADIP2-5): 0.440 h⁻¹
lag time tlag (mean) ([2]; strain ADIP2-5): 8.3 h
growth rate μ (mean) ([2]; strain ADIP2-6): 0.470 h⁻¹
lag time tlag (mean) ([2]; strain ADIP2-6): 8.2 h
growth rate μ (mean) ([2]; strain ADIP2-10): 0.438 h⁻¹
lag time tlag (mean) ([2]; strain ADIP2-10): 8.3 h
growth rate μ (mean) ([2]; strain ADIP3-2): 0.459 h⁻¹
lag time tlag (mean) ([2]; strain ADIP3-2): 7.9 h
growth rate μ (mean) ([2]; strain ADIP3-4): 0.451 h⁻¹
lag time tlag (mean) ([2]; strain ADIP3-4): 8.4 h
growth rate μ (mean) ([2]; strain ADIP3-8): 0.433 h⁻¹
lag time tlag (mean) ([2]; strain ADIP3-8): 8.5 h
growth rate μ (mean) ([2]; strain ADIP4-1): 0.339 h⁻¹
lag time tlag (mean) ([2]; strain ADIP4-1): 11.2 h
growth rate μ (mean) ([2]; strain ADIP4-8): 0.326 h⁻¹
lag time tlag (mean) ([2]; strain ADIP4-8): 10.4 h
growth rate μ (mean) ([2]; strain ADIP5-2): 0.354 h⁻¹
lag time tlag (mean) ([2]; strain ADIP5-2): 9.4 h
growth rate μ (mean) ([2]; strain ADIP5-6): 0.527 h⁻¹
lag time tlag (mean) ([2]; strain ADIP5-6): 7.2 h
growth rate μ (mean) ([2]; strain ADIP6-3): 0.327 h⁻¹
lag time tlag (mean) ([2]; strain ADIP6-3): 9.9 h
growth rate μ (mean) ([2]; strain ADIP6-9): 0.337 h⁻¹
lag time tlag (mean) ([2]; strain ADIP6-9): 10.3 h
growth rate μ (mean) ([2]; strain ADIP6-10): 0.343 h⁻¹
lag time tlag (mean) ([2]; strain ADIP6-10): 9.1 h
growth rate μ (mean) ([2]; strain ADIP7-2): 0.342 h⁻¹
lag time tlag (mean) ([2]; strain ADIP7-2): 7.9 h
growth rate μ (mean) ([2]; strain ADIP7-5): 0.402 h⁻¹
lag time tlag (mean) ([2]; strain ADIP7-5): 8.6 h
growth rate μ (mean) ([2]; strain ADIP8-3): 0.308 h⁻¹
lag time tlag (mean) ([2]; strain ADIP8-3): 11.7 h
growth rate μ (mean) ([2]; strain ADIP8-7): 0.235 h⁻¹
lag time tlag (mean) ([2]; strain ADIP8-7): 12.5 h
growth rate μ (mean) ([2]; strain ADIP8-10): 0.290 h⁻¹
lag time tlag (mean) ([2]; strain ADIP8-10): 11.3 h
growth rate μ (mean) ([2]; strain GLUT1-3): 0.454 h⁻¹
lag time tlag (mean) ([2]; strain GLUT1-3): 10.2 h
growth rate μ (mean) ([2]; strain GLUT1-9): 0.446 h⁻¹
lag time tlag (mean) ([2]; strain GLUT1-9): 10.4 h
growth rate μ (mean) ([2]; strain GLUT1-10): 0.446 h⁻¹
lag time tlag (mean) ([2]; strain GLUT1-10): 18.1 h
growth rate μ (mean) ([2]; strain GLUT2-1): 0.385 h⁻¹
lag time tlag (mean) ([2]; strain GLUT2-1): 10.8 h
growth rate μ (mean) ([2]; strain GLUT2-9): 0.415 h⁻¹
lag time tlag (mean) ([2]; strain GLUT2-9): 9.0 h
growth rate μ (mean) ([2]; strain GLUT2-10): 0.494 h⁻¹
lag time tlag (mean) ([2]; strain GLUT2-10): 8.8 h
growth rate μ (mean) ([2]; strain GLUT3-5): 0.310 h⁻¹
lag time tlag (mean) ([2]; strain GLUT3-5): 12.0 h
growth rate μ (mean) ([2]; strain GLUT3-7): 0.326 h⁻¹
lag time tlag (mean) ([2]; strain GLUT3-7): 11.7 h
growth rate μ (mean) ([2]; strain GLUT3-9): 0.257 h⁻¹
lag time tlag (mean) ([2]; strain GLUT3-9): 14.5 h
growth rate μ (mean) ([2]; strain GLUT4-1): 0.414 h⁻¹
lag time tlag (mean) ([2]; strain GLUT4-1): 11.7 h
growth rate μ (mean) ([2]; strain GLUT4-4): 0.339 h⁻¹
lag time tlag (mean) ([2]; strain GLUT4-4): 13.4 h
growth rate μ (mean) ([2]; strain GLUT4-10): 0.328 h⁻¹
lag time tlag (mean) ([2]; strain GLUT4-10): 13.5 h
growth rate μ (mean) ([2]; strain GLUT5-4): 0.398 h⁻¹
lag time tlag (mean) ([2]; strain GLUT5-4): 15.2 h
growth rate μ (mean) ([2]; strain GLUT5-5): 0.368 h⁻¹
lag time tlag (mean) ([2]; strain GLUT5-5): 11.4 h
growth rate μ (mean) ([2]; strain GLUT5-9): 0.438 h⁻¹
lag time tlag (mean) ([2]; strain GLUT5-9): 22.5 h
growth rate μ (mean) ([2]; strain GLUT6-4): 0.360 h⁻¹
lag time tlag (mean) ([2]; strain GLUT6-4): 11.3 h
growth rate μ (mean) ([2]; strain GLUT6-5): 0.420 h⁻¹
lag time tlag (mean) ([2]; strain GLUT6-5): 10.6 h
growth rate μ (mean) ([2]; strain GLUT6-10): 0.502 h⁻¹
lag time tlag (mean) ([2]; strain GLUT6-10): 10.5 h
growth rate μ (mean) ([2]; strain GLUT7-2): 0.441 h⁻¹
lag time tlag (mean) ([2]; strain GLUT7-2): 10.6 h
growth rate μ (mean) ([2]; strain GLUT7-6): 0.293 h⁻¹
lag time tlag (mean) ([2]; strain GLUT7-6): 13.7 h
growth rate μ (mean) ([2]; strain GLUT7-7): 0.239 h⁻¹
lag time tlag (mean) ([2]; strain GLUT7-7): 8.5 h
growth rate μ (mean) ([2]; strain GLUT8-5): 0.372 h⁻¹
lag time tlag (mean) ([2]; strain GLUT8-5): 17.3 h
growth rate μ (mean) ([2]; strain GLUT8-6): 0.236 h⁻¹
lag time tlag (mean) ([2]; strain GLUT8-6): 10.3 h
growth rate μ (mean) ([2]; strain GLUT8-9): 0.224 h⁻¹
lag time tlag (mean) ([2]; strain GLUT8-9): 12.0 h
growth rate μ (mean) ([2]; strain MG1655 (Table 26)): 0.248 h⁻¹
lag time tlag (mean) ([2]; strain MG1655 (Table 26)): 13.4 h
growth rate μ (mean) ([2]; strain MG1655 (Table 27)): 0.257 h⁻¹
lag time tlag (mean) ([2]; strain MG1655 (Table 27)): 13.0 h
